Consider three molecules from patent publication US20240325477A1, “PROTEIN HYDROLYSATE OF MORINGA PEREGRINA SEED CAKE FOR ITS APPLICATION AS A MEDICAMENT, PROCESS FOR OBTAINING SAME AND PHARMACEUTICAL AND DERMATOLOGICAL COMPOSITIONS” (AGENCE FRANCAISE POUR LE DEVELOPPEMENT D'AL ULA, priority 2020, published 2024).

Test [1] relates to mouse embryo fibroblasts Balb/c 3T3 clone 31. The test is described as follows: In vitro 3T3 NRU phototoxicity test. Format: cell-based. As to conditions: BALB/c3T3, light or radiation study, read-out: Cl50 (the source's name).
Excerpt: The principle of the test is the comparison of the cytotoxicity of the protein hydrolysate in accordance with Example 1 in the presence and in the absence of a non-cytotoxic dose of UVA, on cells under culture. […] The cells used were mouse embryo fibroblasts from the Balb/c 3T3 clone 31 (ATCC-CCL163) line. The positive control was a solution of chlorpromazine (CAS number: 69-09-0). The negative control was a diluent for the test and reference extract (buffered saline solution+/−1% solvent). […] The fibroblasts were trypsinized and two 96-well culture plates were inoculated in an amount of 100 μL of a 2×10^5 cells/mL (i.e. 2×10^6 cells per well) cell suspension in complete culture medium. The inoculated plates were incubated in an oven for 24 hours at 37° C., 5% CO2. At the end of the incubation, semi-confluence of the cell mat was verified. […] The spectral irradiation of the test device was measured in the wavelength range 250 to 700 nanometers with a calibrated spectroradiometer.
One of the 2 plates was irradiated with its cover at ambient temperature, and the other plate was protected from UVA and stored at ambient temperature for the irradiation period. […] The next day, the cell viability (growth, morphology, integrity of the monolayer) was evaluated by observations using a phase contrast microscope. […] The absorbances were measured at 450 nm.
The next test concerns DKK-1. In words: DKK-1 synthesis and release by normal human fibroblasts, ELISA, 48 h. Format: cell-based. As to conditions: 100 nM. The protocol:
The aim of this study is to evaluate the effect of the peregrina protein hydrolysate on the synthesis and release of DKK-1 in a model compound of normal human fibroblasts in a monolayer culture.
Protocol: Human fibroblast cells were obtained from a donor. In order to carry out the experiments, the fibroblasts were cultured in a monolayer to confluence. 100 nM dexamethasone was used as a reference inducer for the synthesis and release of DKK-1. The […] were incubated for 48 hours in the absence (control) or in the presence of the reference product or of the test product: “peregrina protein hydrolysate”: 0.01%; 0.1% and 0.5% (v/v).
At the end of the incubation, the incubation media were removed in order to carry out the DKK-1 liberation method. […]
At the end of the incubation period of 48 hours, the DKK-1 liberated into the incubation medium was quantified with the aid of a sensitive and specific ELISA kit.
At the end of the incubation period, the proteins contained in the cell lysates were quantified with the aid of a spectrocolorimetric method (Bradford method). […]
The level of significance between the “control” and the “reference product” was evaluated with the aid of a Student test (p<0.05).
The level of significance between the “Control” and the “test product” was evaluated by a single factor analysis of variance (one-way ANOVA) followed by a Holm-Sidak test (p<0.05).

Another test addresses recombinant human furin (Homo sapiens, UniProt P09958). In words: Furin convertase activity, cleavage of fluorescent substrate. Format: biochemical. As to conditions: 100 nM. The protocol: Protocol: The study was carried out using a recombinant human furin, which catalyzes cleavage of a specific fluorescent reference substrate.
100 nM decanoyl-Arg-Val-Lys-Arg-CMK was used as a reference inhibitor for the activity of furin.
The furin was pre-incubated for 10 minutes at ambient temperature in the absence (control) or in the presence of a reference product, or of increasing concentrations of the test compound:
“Peregrina protein hydrolysate”; 0.02; 0.2 and 2% (v/v).
At the end of the pre-incubation step, a furin substrate was added and the experimental conditions were incubated once again at ambient temperature away from light for 5 minutes. All of the experiments were carried out in triplicate. […]
Cleavage of the fluorescent furin substrate was monitored for 5 minutes after addition of the substrate by reading the fluorescence at 485 nm/535 nm. […]
Evaluation protocol: Cleavage of the fluorescent furin substrate was monitored for 5 minutes after addition of the substrate by recording the fluorescence at 485 nm/535 nm. […]. […] The statistical significance of the difference observed between the “Control” and “Reference product” groups was evaluated by a Student test (p<0.001). The statistical significance of the difference observed between the “Control” and “Test compound” groups was evaluated by a one-way ANOVA, followed by a Holm-Sidak test (p<0.05). […]

≈ marks a conversion by molar mass, not a printed value. Like-named read-outs stand apart in the source and are kept apart here. The star is where a group is joined. Decanoyl = CCCCCCCCCC(=O)*; CH2Cl = ClC*

recombinant human furin, sequence (P09958 108-794): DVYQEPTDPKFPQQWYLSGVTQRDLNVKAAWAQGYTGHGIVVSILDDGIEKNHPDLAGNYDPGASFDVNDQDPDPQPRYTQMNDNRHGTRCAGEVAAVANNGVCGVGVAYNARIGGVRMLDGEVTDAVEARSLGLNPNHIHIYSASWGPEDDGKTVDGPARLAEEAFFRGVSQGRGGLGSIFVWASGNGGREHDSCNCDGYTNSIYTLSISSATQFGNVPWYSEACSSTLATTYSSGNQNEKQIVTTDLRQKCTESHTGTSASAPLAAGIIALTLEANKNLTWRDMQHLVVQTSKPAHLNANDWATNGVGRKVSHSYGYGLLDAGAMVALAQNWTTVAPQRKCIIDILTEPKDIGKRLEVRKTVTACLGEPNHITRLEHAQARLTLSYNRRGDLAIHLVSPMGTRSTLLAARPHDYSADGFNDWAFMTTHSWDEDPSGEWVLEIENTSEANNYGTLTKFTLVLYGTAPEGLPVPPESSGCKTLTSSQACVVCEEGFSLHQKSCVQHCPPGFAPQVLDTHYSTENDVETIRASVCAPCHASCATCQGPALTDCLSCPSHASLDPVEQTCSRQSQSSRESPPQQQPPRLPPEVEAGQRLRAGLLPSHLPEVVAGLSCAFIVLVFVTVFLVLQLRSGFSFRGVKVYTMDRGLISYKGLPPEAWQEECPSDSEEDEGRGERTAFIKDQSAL

As for `CN(C)CCCN1c2ccccc2Sc2ccc(Cl)cc21` [Chlorpromazine, chlorpromazine], the IC50 in test [1] (in the absence of UVA) was 7 to 90 µg/mL (≈ 22 to 282 µM); in test [1] (in the presence of UVA), 0.1 to 2 µg/mL.

In the case of `C[C@@H]1C[C@H]2[C@@H]3CCC4=CC(=O)C=C[C@]4(C)[C@@]3(F)[C@@H](O)C[C@]2(C)[C@@]1(O)C(=O)CO` [Dexamethasone, dexamethasone], the “Increase of the DKK-1 liberated compared with the Control” value in the test with DKK-1 is on record as 181.8%.

In the case of “decanoyl-Arg-Val-Lys-Arg-CMK (Decanoyl-RVKR-CH2Cl)”, the “Inhibition of the activity of furin” value with recombinant human furin was 97.9%.
